According to ChEMBL document CHEMBL5550160, “Leveraging a rationally designed veliparib-based anilide eliciting anti-leukemic effects for the design of pH-responsive polymer nanoformulation” (Eur J Med Chem, 2024):
Activity calls are given as the source filed them. The calls are words filed in the database; no cut-off is given here.

Legend:
[1] = biological target: Histone deacetylase 3 (Homo sapiens, UniProt O15379); experiment: Inhibition of HDAC3 (unknown origin) using p53 residues 379 to 382 [RHKK(Ac)] as fluorogenic substrate assessed as residual activity at 1.37 x 10^-8M (reference value: 103.08%); conditions: dose 1.37 10^-8M
Chain of Histone deacetylase 3 (O15379 whole entry, the tested form may be a part): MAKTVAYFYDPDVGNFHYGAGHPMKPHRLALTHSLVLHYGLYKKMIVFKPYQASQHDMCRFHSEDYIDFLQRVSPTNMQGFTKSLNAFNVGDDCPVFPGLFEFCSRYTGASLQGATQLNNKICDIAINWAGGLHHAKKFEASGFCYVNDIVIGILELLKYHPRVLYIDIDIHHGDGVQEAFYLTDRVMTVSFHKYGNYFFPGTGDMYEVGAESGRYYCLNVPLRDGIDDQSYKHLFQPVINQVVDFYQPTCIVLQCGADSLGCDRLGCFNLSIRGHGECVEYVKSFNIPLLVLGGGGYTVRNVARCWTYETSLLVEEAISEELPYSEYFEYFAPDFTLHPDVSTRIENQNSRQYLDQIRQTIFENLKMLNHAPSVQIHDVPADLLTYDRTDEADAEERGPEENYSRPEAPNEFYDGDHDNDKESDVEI

[2] = test system: HL-60; experiment: Downregulation of HDAC3 protein expression in human HL-60 cells at 0.5 to 1 times IC50 by Western blot analysis; assay type: functional, cell-based
[3] = biological target: T1, Protein deacetylase HDAC6 (Homo sapiens) (UniProt Q9UBN7); experiment: Inhibition of HDAC6 (unknown origin) using p53 residues 379 to 382 [RHKK(Ac)] as fluorogenic substrate assessed as residual activity at 1.23 x 10^-7M (reference value: 101.06%); conditions: dose 1.23 10^-7M
T1 sequence (whole entry): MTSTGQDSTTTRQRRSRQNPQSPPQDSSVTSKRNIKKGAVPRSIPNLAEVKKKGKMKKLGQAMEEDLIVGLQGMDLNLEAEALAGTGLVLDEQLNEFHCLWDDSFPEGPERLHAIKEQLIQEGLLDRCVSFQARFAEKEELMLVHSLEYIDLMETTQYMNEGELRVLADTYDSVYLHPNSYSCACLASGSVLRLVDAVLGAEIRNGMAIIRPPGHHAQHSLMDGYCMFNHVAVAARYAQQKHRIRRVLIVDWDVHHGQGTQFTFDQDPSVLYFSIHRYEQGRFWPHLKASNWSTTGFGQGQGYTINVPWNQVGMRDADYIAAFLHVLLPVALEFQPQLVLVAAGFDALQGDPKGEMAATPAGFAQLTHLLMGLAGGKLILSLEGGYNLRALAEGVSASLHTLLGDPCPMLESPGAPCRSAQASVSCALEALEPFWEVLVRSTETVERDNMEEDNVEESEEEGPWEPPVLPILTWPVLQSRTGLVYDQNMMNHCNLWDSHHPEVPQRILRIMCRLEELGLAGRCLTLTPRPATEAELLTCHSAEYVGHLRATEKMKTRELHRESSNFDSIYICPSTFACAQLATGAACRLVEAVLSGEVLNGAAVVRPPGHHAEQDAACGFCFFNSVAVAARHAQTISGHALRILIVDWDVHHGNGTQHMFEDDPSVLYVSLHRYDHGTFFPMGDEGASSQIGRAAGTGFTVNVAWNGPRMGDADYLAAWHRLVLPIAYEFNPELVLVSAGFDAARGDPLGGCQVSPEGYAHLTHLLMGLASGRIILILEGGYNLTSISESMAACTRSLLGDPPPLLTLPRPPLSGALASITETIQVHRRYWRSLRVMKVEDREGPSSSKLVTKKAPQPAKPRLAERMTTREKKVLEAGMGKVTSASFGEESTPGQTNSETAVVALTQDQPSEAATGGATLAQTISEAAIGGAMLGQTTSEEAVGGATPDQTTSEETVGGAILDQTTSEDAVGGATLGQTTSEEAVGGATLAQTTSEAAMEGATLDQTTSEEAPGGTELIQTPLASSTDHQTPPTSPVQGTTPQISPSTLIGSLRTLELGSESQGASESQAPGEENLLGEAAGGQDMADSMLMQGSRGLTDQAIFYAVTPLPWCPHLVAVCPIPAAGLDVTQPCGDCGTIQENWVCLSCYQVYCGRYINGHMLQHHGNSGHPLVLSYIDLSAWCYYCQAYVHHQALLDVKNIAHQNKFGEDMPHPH

[4] = biological target: T2, Histone deacetylase 8 (Homo sapiens) (UniProt Q9BY41); experiment: Inhibition of HDAC8 (unknown origin) assessed as residual activity at 1 x 10^-5M (reference value: 100%); conditions: dose 1.0 10^-5M
T2 sequence (whole entry): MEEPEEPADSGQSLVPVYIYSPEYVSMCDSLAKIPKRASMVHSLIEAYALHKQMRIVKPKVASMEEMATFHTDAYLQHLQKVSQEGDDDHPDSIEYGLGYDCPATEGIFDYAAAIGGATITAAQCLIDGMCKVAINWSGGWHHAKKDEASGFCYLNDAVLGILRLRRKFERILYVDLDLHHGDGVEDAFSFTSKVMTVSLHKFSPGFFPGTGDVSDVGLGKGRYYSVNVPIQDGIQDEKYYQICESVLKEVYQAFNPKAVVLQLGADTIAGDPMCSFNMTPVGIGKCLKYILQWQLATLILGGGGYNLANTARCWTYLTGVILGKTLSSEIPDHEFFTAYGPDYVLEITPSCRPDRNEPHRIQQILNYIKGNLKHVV

[5] = biological target: T3, Histone deacetylase 7 (Homo sapiens) (UniProt Q8WUI4); experiment: Inhibition of HDAC7 (unknown origin) assessed as residual activity at 1 x 10^-5M (reference value: 102.66%)
T3 sequence (whole entry): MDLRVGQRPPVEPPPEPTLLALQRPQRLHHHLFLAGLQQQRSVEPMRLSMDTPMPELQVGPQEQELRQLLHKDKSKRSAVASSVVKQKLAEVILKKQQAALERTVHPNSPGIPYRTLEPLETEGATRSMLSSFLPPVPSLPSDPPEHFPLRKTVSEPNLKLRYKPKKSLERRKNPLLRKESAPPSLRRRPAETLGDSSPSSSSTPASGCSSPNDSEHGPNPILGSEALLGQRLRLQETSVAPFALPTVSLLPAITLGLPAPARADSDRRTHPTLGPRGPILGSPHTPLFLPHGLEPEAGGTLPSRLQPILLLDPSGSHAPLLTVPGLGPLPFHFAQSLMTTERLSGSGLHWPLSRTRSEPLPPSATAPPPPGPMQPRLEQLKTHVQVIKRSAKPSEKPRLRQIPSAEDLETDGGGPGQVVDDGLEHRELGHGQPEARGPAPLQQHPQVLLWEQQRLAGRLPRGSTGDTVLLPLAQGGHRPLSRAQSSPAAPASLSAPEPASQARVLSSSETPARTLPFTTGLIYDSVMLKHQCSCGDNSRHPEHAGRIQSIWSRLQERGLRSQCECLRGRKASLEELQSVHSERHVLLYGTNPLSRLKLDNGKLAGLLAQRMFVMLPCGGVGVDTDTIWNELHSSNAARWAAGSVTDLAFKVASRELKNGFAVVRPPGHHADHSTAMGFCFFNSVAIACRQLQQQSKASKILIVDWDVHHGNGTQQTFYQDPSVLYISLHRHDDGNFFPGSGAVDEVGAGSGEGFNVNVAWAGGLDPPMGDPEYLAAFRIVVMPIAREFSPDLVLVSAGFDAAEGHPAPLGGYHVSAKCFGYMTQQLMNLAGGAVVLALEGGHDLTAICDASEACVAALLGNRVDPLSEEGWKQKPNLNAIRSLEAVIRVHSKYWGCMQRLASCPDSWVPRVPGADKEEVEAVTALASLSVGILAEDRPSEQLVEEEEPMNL

[6] = biological target: T3, Histone deacetylase 7 (Homo sapiens); experiment: Inhibition of HDAC7 (unknown origin) assessed as residual activity at 1.1 x 10^-6M (reference value: 102.66%); conditions: dose 1.1 10^-6M
[7] = biological target: Histone deacetylase 1 (Homo sapiens, UniProt Q13547); experiment: Inhibition of HDAC1 (unknown origin) using p53 residues 379 to 382 [RHKK(Ac)] as fluorogenic substrate assessed as residual activity at 3.33 x 10^-6M (reference value: 98.06%); conditions: dose 3.33 10^-6M
Chain of Histone deacetylase 1 (Q13547 whole entry, the tested form may be a part): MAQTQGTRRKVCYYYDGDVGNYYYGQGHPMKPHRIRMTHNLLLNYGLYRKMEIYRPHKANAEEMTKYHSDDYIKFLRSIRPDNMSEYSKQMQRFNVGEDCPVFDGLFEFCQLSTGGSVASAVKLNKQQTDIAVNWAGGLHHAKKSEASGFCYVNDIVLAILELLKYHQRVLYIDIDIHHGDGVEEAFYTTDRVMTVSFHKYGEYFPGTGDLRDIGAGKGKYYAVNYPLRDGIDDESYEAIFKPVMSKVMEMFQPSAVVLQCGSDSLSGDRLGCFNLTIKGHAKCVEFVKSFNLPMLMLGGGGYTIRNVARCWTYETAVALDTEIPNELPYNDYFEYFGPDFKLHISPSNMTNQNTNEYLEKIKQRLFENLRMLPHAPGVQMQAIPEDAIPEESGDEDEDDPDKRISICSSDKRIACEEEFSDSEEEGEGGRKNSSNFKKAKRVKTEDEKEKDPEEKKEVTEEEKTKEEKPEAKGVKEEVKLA

- Activity [1]: 110%
- Activity [3]: 91.9%
- Activity [4]: 69.5%
- Activity [5]: 92%
- Activity [6]: 78.2%
- Activity [7]: 6.73%
Compound: NC(=O)c1cccc2[nH]c(-c3ccc(NCc4ccc(C(=O)Nc5ccccc5N)cc4)cc3)nc12
- Activity [2]: Active
